Data on 3 molecules can be found in paper PMC6155272, “Chroman-4-One Derivatives Targeting Pteridine Reductase 1 and Showing Anti-Parasitic Activity” (Molecules : A Journal of Synthetic Chemistry and Natural …, 2017).

In one data set the target is T1, Aurora B kinase (Homo sapiens, UniProt Q96GD4).
T1 construct: purchased Promega
As to the kind of experiment: Aurora B kinase assay (ADP-Glo). Format: biochemical. An excerpt: This assay made use of the ADP-Glo Kinase Enzyme System from Promega (Madison, AL, USA), which is a bioluminescent assay that employs firefly luciferase in a coupled-enzyme assay format to enable detection of adenosine diphosphate (ADP) levels from ATPase assays.
Background: ADP-Glo turns the ADP formed in a reaction into a luminescent signal.

Data set [1] relates to L. infantum (MHOM/BR/1972/BH46) intracellular amastigotes. As to the kind of experiment: Activity against L. infantum intramacrophage amastigotes (high-content imaging). It counts as cell-based, Leishmania infantum. The following applies: 50 μM, amastigotes; for inhibition at 50 µM: Leishmania infantum, read-out: % inh. L. infantum (50 μM). As for the experimental part: […] THP-1 cells were plated onto 384-well plates in Roswell Park Memorial Institute (RPMI) 1640 medium, Hyclone, GE Healthcare Life Sciences (Issaquah, WA, USA) containing 50 ng/mL phorbol 12-myristate 13-acetate (PMA, Sigma-Aldrich, Saint Louis, MS, USA), and incubated for 48 h. Then, 6 day-old promastigotes were added, at a ratio of 50 parasites per each THP-1 cell seeded earlier. After 24 h of infection, negative controls (0.5% DMSO), positive controls (10 μM amphotericin B) or compounds were added to the plate. Assay plates were incubated for 48 h, and then fixed with 4% paraformaldehyde and stained with Draq 5. The Operetta high-content automated imaging system was used to acquire images and the Harmony Software was optimized to quantify the host cell number, the infection ratio and the number of parasites per infected cell. The ratio between infected cells and total number of cells is then calculated, and defined as the Infection Ratio (IR). The raw data for IR values was normalized to negative—DMSO (mock)-treated infected cells—and positive (non-infected cells) controls to determine the normalized antiparasitic activity.

The next data set addresses T2, CYP1A2 (Homo sapiens, UniProt P05177).
T2 construct: purchased Promega; host or cells: baculovirus-infected insect cells
T2 sequence (P05177 1-516): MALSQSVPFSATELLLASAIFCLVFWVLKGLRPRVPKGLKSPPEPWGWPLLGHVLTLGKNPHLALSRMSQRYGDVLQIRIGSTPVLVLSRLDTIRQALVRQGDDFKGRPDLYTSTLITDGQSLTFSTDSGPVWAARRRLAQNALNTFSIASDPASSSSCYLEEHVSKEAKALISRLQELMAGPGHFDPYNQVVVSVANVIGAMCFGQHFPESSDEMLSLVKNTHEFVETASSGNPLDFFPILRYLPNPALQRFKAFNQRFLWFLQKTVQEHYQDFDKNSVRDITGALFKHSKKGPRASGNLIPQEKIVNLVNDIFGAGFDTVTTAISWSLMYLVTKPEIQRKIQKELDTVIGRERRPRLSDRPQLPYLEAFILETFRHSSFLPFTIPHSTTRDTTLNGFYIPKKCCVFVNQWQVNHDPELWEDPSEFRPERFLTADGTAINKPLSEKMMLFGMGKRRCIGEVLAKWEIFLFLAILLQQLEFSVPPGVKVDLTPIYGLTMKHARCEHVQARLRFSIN
In words: Cytochrome P450 1A2 assay (P450-Glo). The settings on record: for inhibition at 10 µM: human. It counts as in vitro ADME. An excerpt:
(§1) These assays made use of the PromegaP450-Glo™ (Madison, AL, USA) assay platform. Each CYP450 assay includes microsomal preparations of cytochromes from baculovirus-infected insect cells.

Data set [2] addresses T3, Leishmania major pteridine reductase 1 (LmPTR1) (Leishmania major, UniProt Q01782).
T3 construct: made in house
T3 sequence (Q01782 1-288): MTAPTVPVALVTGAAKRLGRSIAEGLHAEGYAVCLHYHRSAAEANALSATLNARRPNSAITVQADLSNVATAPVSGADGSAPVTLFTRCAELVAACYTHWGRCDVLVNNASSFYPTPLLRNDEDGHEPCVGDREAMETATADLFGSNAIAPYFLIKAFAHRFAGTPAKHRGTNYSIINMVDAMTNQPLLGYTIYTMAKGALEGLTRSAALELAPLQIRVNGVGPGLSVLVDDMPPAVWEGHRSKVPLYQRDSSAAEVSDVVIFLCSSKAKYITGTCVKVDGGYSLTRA
In words: LmPTR1 enzyme reporter assay (cytochrome-c reduction, 550 nm). The following applies: for IC50: compounds 1–3, SD agreed to ±10%; for inhibition at 50 µM: read-out: % Inhibition LmPTR1 (50 μM). Format: biochemical. As for the experimental part: TbPTR1 and LmPTR1 were purified as reported in literature. The enzyme kinetic profile of each selected protein was characterized by a spectrophotometric assay. The experimental assay consists of enzyme kinetic reaction monitoring at 340 nm for a total time of 180 s. The enzyme kinetic activity was measured at steady-state concentration of 7,8-dihydro-L-biopterin (H2B) and NADPH substrates equal to 50 and 120 µM and varying the enzyme concentration in the 0.001–0.006 µM and 0.005–0.010–0.015–0.020–0.025–0.030 µM range for Lm- and TbPTR1, respectively. The resulting kcat values were equal to 0.68 (s^−1) and 7.2 (s^−1) for Tb- and LmPTR1, respectively. For both TbPTR1 and LmPTR1, the Km value evaluation assay for H2B- and NADPH-substrates was performed in the 0.3-0.6–0.9–1.2–2.4–4.8 µM and 3.0–6.0–12.0–40.0–90.0–190.0 µM concentrations range, respectively.
Compounds 1A–3A were evaluated as reported in our previous paper. The novel synthesized compounds 1–3 were tested towards TbPTR1 and LmPTR1 using the in vitro TbPTR1/LmPTR1 enzyme reporter assay. The experimental procedure consists of monitoring the non-enzymatic reduction reaction of cytochrome-c at 550 nm, related to the reduction reaction of H2B to tetrahydrobiopterin (H4B) by using NADPH as the cofactor. TbPTR1 and LmPTR1 enzyme activity was assayed in a buffer containing 20 mM sodium citrate (pH 6.0) in a final experimental volume equal to 600 µL. The final reaction mixture contained different substrates added in the following order: TbPTR1/LmPTR1 (0.018 µM/0.002 µM) in 20 mM Tris-HCl, glycerol 10% (v/v), pH 7.5; H2B at a final concentration equal to 0.3 µM; cytochrome-c (80 µM); Milli-Q water to a final volume of 600 µL and NADPH to a final concentration of 500 µM. Before the addition of NADPH, the reaction mixture was incubated for 10 min at 30 °C and 80 RPM. To allow the starting of the reaction, NADPH was added and the enzyme reaction was detected for a total time of 10 min at 30 °C, 550 nm. The inhibition profile characterization of compounds 1–3 was performed with a DU-640 spectrophotometer (Beckman Coulter, Brea, CA, USA). Each compound was assayed in duplicate against Tb/LmPTR1 target enzymes in the 0–10–25–50–80–150 µM concentrations range. At the different concentration values, the compounds were added to the reaction mixture (enzyme, H2B, cytochrome-c in 20 mM sodium citrate buffer and Milli-Q water) and incubated for 10 min at 30 °C, 80 RPM. The reaction was initiated by the addition of NADPH (500 µM) and monitored for 10 min at 30 °C, 550 nm. The absorbance values were processed by software analysis and transformed into the corresponding slopes. The percentages of inhibition and the IC50 values were determined.
Background: Reporter assays use an easily measured gene product as a stand-in for the process of interest.

For a further data set, the target named is T4, CYP2C19 (Homo sapiens, UniProt P33261).
T4 construct: purchased Promega; host or cells: baculovirus-infected insect cells
In words: Cytochrome P450 2C19 assay (P450-Glo). Format: in vitro ADME. The settings on record: for inhibition at 10 µM: human.
Source text: as §1

A value given as a limit tells only on which side of the number the result lay.

T4 sequence (P33261 whole entry): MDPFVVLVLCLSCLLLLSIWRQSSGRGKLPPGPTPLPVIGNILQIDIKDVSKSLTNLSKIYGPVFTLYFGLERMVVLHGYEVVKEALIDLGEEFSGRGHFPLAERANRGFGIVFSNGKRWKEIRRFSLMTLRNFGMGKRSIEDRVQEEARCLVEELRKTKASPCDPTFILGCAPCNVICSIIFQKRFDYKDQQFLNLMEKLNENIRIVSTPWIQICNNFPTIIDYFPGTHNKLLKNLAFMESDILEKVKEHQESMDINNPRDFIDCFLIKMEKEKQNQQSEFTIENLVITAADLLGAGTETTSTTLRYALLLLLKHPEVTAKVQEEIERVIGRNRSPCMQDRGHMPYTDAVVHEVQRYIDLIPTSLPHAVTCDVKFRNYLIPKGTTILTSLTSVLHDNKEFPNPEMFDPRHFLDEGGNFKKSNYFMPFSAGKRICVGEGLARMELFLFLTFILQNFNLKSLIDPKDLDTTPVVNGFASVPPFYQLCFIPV
T1 sequence (Q96GD4 whole entry): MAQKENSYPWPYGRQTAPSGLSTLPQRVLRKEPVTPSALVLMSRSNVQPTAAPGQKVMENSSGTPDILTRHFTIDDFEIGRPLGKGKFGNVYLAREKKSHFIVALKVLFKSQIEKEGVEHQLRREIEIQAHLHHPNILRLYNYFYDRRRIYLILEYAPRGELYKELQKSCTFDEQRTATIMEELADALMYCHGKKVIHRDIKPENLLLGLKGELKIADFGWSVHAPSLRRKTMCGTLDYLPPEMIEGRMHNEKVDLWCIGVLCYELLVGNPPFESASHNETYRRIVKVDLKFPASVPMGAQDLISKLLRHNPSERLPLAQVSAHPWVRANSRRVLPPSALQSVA

On to `O=C1CC(c2cccc(O)c2)Oc2ccc(O)cc21` (stereo not shown) [Compound 1], for which the inhibition at 10 µM at Aurora B kinase is under 15%; at CYP1A2 it was 3%; against CYP2C19, 77.2%. Also, the inhibition at 50 µM was 31% in data set [1] and 50.4% in data set [2]. In addition, the IC50 on CYP1A2 turned out to be 29 µM; in data set [2], 57 µM; against CYP2C19, 1 µM.
In the case of `O=C1CC(c2ccc(O)cc2)Oc2ccc(O)cc21` (stereo not shown) [Compound 2], the figures for the inhibition at 10 µM on Aurora B kinase, on CYP1A2 and on CYP2C19 were under 15%, under 15% and 44.5%, respectively. Further, the inhibition at 50 µM in data set [1] was found to be 29%; in data set [2], 56%. In addition, the IC50 against CYP1A2 stood at 59 µM; in data set [2] it was 35 µM; against CYP2C19 it was 4 µM.
For the molecule `O=C1CC(c2ccc(O)c(O)c2)Oc2ccc(O)cc21` (stereo not shown) [Compound 3], the inhibition at 10 µM on Aurora B kinase was under 15%; against CYP1A2 it was under 15%; on CYP2C19 it was 2.68%. Also, the “% inh. L. infantum (50 μM)” value in data set [1] was “inactive”. For the same molecule, the inhibition at 50 µM in data set [1] worked out at 3%; in data set [2] it was 69%. Moreover, the results for the IC50 (at CYP1A2; in data set [2]; against CYP2C19) were 62 µM, 36 µM and 5 µM, respectively.

For orientation: IC50 means the concentration that gives 50% inhibition.
